{
  "source": "paper PMC12249711",
  "about": "“Comprehensive Evaluation of 1H-Isoindole-1,3(2H)-Dione Derivatives: Pharmacokinetic Studies and Analgesic Potential in Various Pain Models” (International Journal of Molecular Sciences, 2025)",
  "key": {"mice": {"test_system": "mice", "assay": "Formalin test", "assay_type": "in vivo, Albino Swiss mice", "conditions": "for Reduction of pain response, inflammatory phase: phase II (15–30 min)", "description": "The pain reaction was induced by intraplantar (i.pl.) injection of 20 μL of 2.5% formalin solution into the right hind paw of the mouse (n = 136). […] Time (in seconds) spent on licking or biting the injected hind paw in selected intervals, 0–5 min (neurogenic phase) and 15–30 min (inflammatory phase), was measured in each group and was an indicator of nociceptive behavior. The procedure was based on the method described by with some modifications by."}, "rats": {"test_system": "rats", "assay": "Carrageenan-induced mechanical hyperalgesia (pain pressure threshold, Randall-Selitto)", "assay_type": "in vivo, Wistar rats", "conditions": "for Pain Threshold: 20 mg/kg i.p., mean ± SEM, rats; for Increase in pain threshold: 20 mg/kg, vs control", "description": "The acute and local inflammation and paw edema was induced by intraplantar (i.pl.) injection of 0.1 mL of 1% carrageenan solution in PBS into the rat’s right hind paw, according to the modified method of Winter and Lence, as described previously; (n = 84). The paw volume was measured using the dislocation of the water column of the plethysmometer (Type a, 7140; Plethysmometer, Ugo Basile, Gemonio, Italy) before (V0) and at 1, 2, and 3 h (V1, V2, V3) after i.pl. carrageenan injection. […] Vehicle (1% Tween 80) was administered by the same route as the tested compounds.\nFurthermore, we performed the pain pressure threshold test to assess heightened sensitivity to mechanical stimuli. The experiment was conducted based on the method described by Randall and Selitto [58], with certain modifications. An analgesymeter (AnalgesyMeter 37215, Ugo Basile, Gemonio, Italy) was used to gradually apply increasing pressure (measured in grams) to the plantar surface of the right hind paw of the rat until paw withdrawal occurred. At this point, the intensity of the applied force (in grams) was recorded as the withdrawal threshold. The maximum force intensity was set at 250 g. Carrageenan induces a decrease in the nociceptive threshold in response to a mechanical stimulus, a condition referred to as hyperalgesia. For each rat, paw withdrawal thresholds were recorded both before (0 h) and 1, 2, and 3 h after carrageenan administration (i.e., 3.5 h after intraperitoneal pretreatment with the tested compounds). […] The analgesic effect of the tested compounds was assessed in comparison with the control group (1% Tween 80); the injection was performed intraperitoneally within 30 min of carrageenan administration. An analgesic effect occurs when the compound administered produces a pain response with greater pressure than the control group."}},
  "data": [
    {"smiles": "CC(C(=O)O)c1cccc(C(=O)c2ccccc2)c1", "note": "(stereo not drawn) [Ketoprofen, ketoprofen, reference compound]", "values": [
      {"measurement": "Reduction of pain reaction (licking duration), neurogenic phase", "setting": "mice; phase I (0–5 min), 20 mg/kg i.p., vs vehicle", "value": 59.7, "unit": "%"},
      {"measurement": "Reduction of neurogenic pain, neurogenic phase", "setting": "mice; phase I, ketoprofen doses other than 20 mg/kg", "value": "did not show a statistically significant reduction"},
      {"measurement": "Reduction of pain response, inflammatory phase", "setting": "mice; 10 mg/kg i.p., vs vehicle", "value": 23.2, "unit": "%"},
      {"measurement": "Reduction of pain response, inflammatory phase", "setting": "mice; 20 mg/kg i.p., vs vehicle", "value": 59.9, "unit": "%"},
      {"measurement": "Reduction of pain response, inflammatory phase", "setting": "mice; 50 mg/kg, vs vehicle", "value": 71.8, "unit": "%"},
      {"measurement": "Pain Threshold", "setting": "rats; 0 h (before carrageenan)", "value": "130 ± 2.9", "unit": "g"},
      {"measurement": "Pain Threshold", "setting": "rats; 1 h after carrageenan", "value": "155.8 ± 5.2", "unit": "g"},
      {"measurement": "Pain Threshold", "setting": "rats; 2 h after carrageenan", "value": "187.5 ± 9.0", "unit": "g"},
      {"measurement": "Pain Threshold", "setting": "rats; 3 h after carrageenan", "value": "178.3 ± 11.7", "unit": "g"},
      {"measurement": "Increase in pain threshold", "setting": "rats; 1 h", "value": 19.8, "unit": "%"},
      {"measurement": "Increase in pain threshold", "setting": "rats; 2 h", "value": 38, "unit": "%"},
      {"measurement": "Increase in pain threshold", "setting": "rats; 3 h", "value": 33.8, "unit": "%"}
    ]}
  ]
}
